Assay: physchem
Details: logP

Row | chromatographic logP | Structure (SMILES)
1 | 3.88 | C[C@@H](Nc1c(-c2ccc(F)cc2Cl)c(Cl)nc2c(C(N)=O)cnn12)C(C)(C)C
2 | 3.51 | C[C@@H](Nc1c(-c2ccc(F)cc2Cl)c(Cl)nc2c(C(=O)NO)cnn12)C(C)(C)C
3 | 2.47 | C[C@@H](Nc1c(-c2ccc(F)cc2Cl)c(Cl)nc2c(C(N)=NO)cnn12)C(C)(C)C
4 | 2.9 | CC(C)[C@@H](C)Nc1c(-c2ccc(C#N)cc2Cl)c(Cl)nc2c(C(=O)O)cnn12 (single isomer, unassigned) [Example XIX]
5 | 2.63 | C[C@H](Nc1c(-c2ccc(C#N)cc2Cl)c(Cl)nc2c(C(=O)O)cnn12)C(F)(F)F (single isomer, unassigned) [Example XXII]
6 | 1.96 | CC(C)[C@@H](C)Nc1c(-c2ccc(C(N)=O)cc2Cl)c(Cl)nc2c(C(=O)O)cnn12 (single isomer, unassigned) [Example XX]
7 | 3.64 | COC(=O)c1cnn2c(N[C@H](C)C(C)C)c(-c3ccc(C#N)cc3Cl)c(Cl)nc12 (single isomer, unassigned) [drawing 52 atropisomer A]
8 | 3.72 | COC(=O)c1cnn2c(N[C@@H](C)C(C)C)c(-c3ccc(C#N)cc3Cl)c(Cl)nc12 (single isomer, unassigned) [drawing 53 atropisomer A]
9 | 3.32 | COC(=O)c1cnn2c(N[C@@H](C)C(F)(F)F)c(-c3ccc(C#N)cc3Cl)c(Cl)nc12 (single isomer, unassigned) [drawing 54 atropisomer A]
10 | 5.78 | CC(Nc1c(-c2ccc(F)cc2Cl)c(Cl)nc2c(Br)cnn12)C(C)(C)C (stereo not shown) [3-bromo-5-chloro-6-(2-chloro-4-fluorophenyl)-N-(1,2,2-trimethylpropyl)pyrazolo[1,5-a]pyrimidin-7-amine]
11 | 2.82 | N#Cc1ccc(Br)c(Cl)c1 [3-chloro-4-bromobenzonitrile]
12 | 3.23 | C[C@@H](Nc1c(-c2ccc(F)cc2Cl)c(Cl)nc2c(C3=NOCCN3)cnn12)C(C)(C)C [Example IX]
13 | 4.43 | C[C@@H](Nc1c(-c2ccc(F)cc2Cl)c(Cl)nc2c(C3=NOCCO3)cnn12)C(C)(C)C [Example VIII]
14 | 4.72 | C[C@@H](Nc1c(-c2ccc(F)cc2Cl)c(Cl)nc2c(-c3ncco3)cnn12)C(C)(C)C [Example VII]
15 | 5.38 | C[C@@H](Nc1c(-c2ccc(F)cc2Cl)c(Cl)nc2c(-c3nsc(=O)o3)cnn12)C(C)(C)C [Example VI]
16 | 2.88 | CCC(C)c1c(Cl)nc2c(C(=O)O)cnn2c1N[C@@H](C)C(F)(F)F (stereo partly drawn) [Example XII, 5-chloro-6-(sec-butyl)-7-[(S)-3-trifluoroisopropylamino]pyrazolo[1,5-a]pyrimidine-3-carboxylic acid]
17 | 3.52 | CCC(C)c1c(Cl)nc2c(C(=O)O)cnn2c1N[C@@H](C)C(C)C (stereo partly drawn) [Example XIV, 5-chloro-6-(sec-butyl)-7-[(S)-3-methyl-2-butylamino]pyrazolo[1,5-a]pyrimidine-3-carboxylic acid]
18 | 3.7 | CC(C)[C@@H](C)Nc1c(C2CCCC2)c(Cl)nc2c(C(=O)O)cnn12 [Example XV, 5-chloro-6-cyclopentyl-7-[(R)-3-methyl-2-butylamino]pyrazolo[1,5-a]pyrimidine-3-carboxylic acid]
19 | 3.06 | C[C@H](Nc1c(C2CCCC2)c(Cl)nc2c(C(=O)O)cnn12)C(F)(F)F [Example XVII, 5-chloro-6-cyclopentyl-7-[(S)-3-trifluoroisopropylamino]pyrazolo[1,5-a]pyrimidine-3-carboxylic acid]
20 | 3.7 | CC(C)[C@H](C)Nc1c(C2CCCC2)c(Cl)nc2c(C(=O)O)cnn12 [Example XVI]
21 | 3.54 | CC(C)C(C)Nc1c(-c2ccc(F)cc2Cl)c(Cl)nc2c(-c3ccccn3)cnn12 (stereo not shown) [compound 538]
22 | 2.34 | COC(=O)C(C(=O)OC)c1ccc(C#N)cc1Cl [dimethyl(2-chloro-4-cyanophenyl)malonate]
23 | 2.85 | COC(=O)c1cnn2c(Cl)c(-c3ccc(C#N)cc3Cl)c(Cl)nc12 [methyl 5,7-dichloro-6-(2-chloro-4-cyanophenyl)pyrazolo[1,5-a]pyrimidine-3-carboxylate]
24 | 3.13 | CCC(C)c1c(Cl)nc2c(C(=O)OC)cnn2c1Cl (stereo not shown) [methyl 5,7-dichloro-6-(sec-butyl)-pyrazolo[1,5-a]pyrimidine-3-carboxylate]
25 | 3.31 | COC(=O)c1cnn2c(Cl)c(C3CCCC3)c(Cl)nc12 [methyl 5,7-dichloro-6-cyclopentylpyrazolo[1,5-a]pyrimidine-3-carboxylate]
26 | 4.49 | CCC(C)c1c(Cl)nc2c(C(=O)OC)cnn2c1N[C@H](C)C(C)C (stereo partly drawn) [methyl 5-chloro-6-(sec-butyl)-7-[(R)-3-methyl-2-butylamino][1,5-a]pyrimidine-3-carboxylate]
27 | 4.49 | CCC(C)c1c(Cl)nc2c(C(=O)OC)cnn2c1N[C@@H](C)C(C)C (stereo partly drawn) [methyl 5-chloro-6-(sec-butyl)-7-[(S)-3-methyl-2-butylamino]pyrazolo[1,5-a]pyrimidine-3-carboxylate]

Same assay, conditions: logPs

Row | chromatographic logP | Structure (SMILES)
28 | 3.5 | Cc1ccsc1-c1c(Cl)nc2c(C(N)=O)cnn2c1NC(C)C(C)C (stereo not drawn) [5-chloro-7-(1,2-dimethylpropylamino)-6-(3-methylthiophen-2-yl)pyrazolo[1,5-α]pyrimidine-3-carboxamide]
29 | 5.73 | CSc1cnn2c(N3CCC(C)CC3)c(-c3ccc(F)cc3Cl)c(Cl)nc12 [Example I, 5-chloro-6-(2-chloro-4-fluorophenyl)-7-(4-methylpiperidin-1-yl)-3-methylmercapto-pyrazolo [2,3-a]pyrimidine]
30 | 4.2 | CC1CCN(c2c(-c3ccc(F)cc3Cl)c(Cl)nc3c(S(C)(=O)=O)cnn23)CC1 [Example II, 5-chloro-6-(2-chloro-4-fluorophenyl)-7-(4-methylpiperidin-1-yl)-3-methylsulphonyl-pyrazolo[2,3-a]pyrimidine]
31 | 2.48 | CC1CCN(c2c(-c3ccc(F)cc3Cl)c(Cl)nc3c(S(=O)(=O)O)cnn23)CC1 [Example III, 5-chloro-6-(2-chloro-4-fluorophenyl)-7-(4-methylpiperidin-1-yl)pyrazolo[2,3-a]pyrimidine-3-sulphonic acid]
32 | 4.72 | CC(C)NC(=O)c1cnn2c(N[C@H](C)C(C)C)c(-c3c(F)cccc3Cl)c(Cl)nc12 [Example IV, 5-chloro-6-(2-chloro-6-fluorophenyl)-7-{[(1R)-1,2-dimethylpropyl]amino}-N-isopropylpyrazolo[1,5-a]pyrimidine-3-carboxamide]
33 | 3.24 | CC(C)[C@@H](C)Nc1c(-c2c(F)cccc2Cl)c(Cl)nc2c(C(=O)O)cnn12 [Example V, 5-chloro-6-(2-chloro-6-fluorophenyl)-7-{[(1R)-1,2-dimethylpropyl]amino}pyrazolo[1,5-a]pyrimidine-3-carboxylic acid]
34 | 3.57 | CC(C)C(C)Nc1c(-c2ccc(F)cc2Cl)c(Cl)nc2c(-c3nnc(N)s3)cnn12 (stereo not shown) [Example XXIX]
35 | 3.65 | COc1nc2c(C(=O)O)cnn2c(NC(C)C(C)C)c1-c1sccc1C (stereo not drawn) [Example XXV, 7-(1,2-dimethylpropylamino)-5-methoxy-6-(3-methylthiophen-2-yl)pyrazolo[1,5-α]pyrimidine-3-carboxylic acid]
36 | 5 | Cc1ccsc1-c1c(Cl)nc2c(-c3nsc(=O)o3)cnn2c1NC(C)C(C)C (stereo not drawn) [Example XXVI, 5-[5-Chloro-7-(1,2-dimethylpropylamino)-6-(3-methylthiophen-2-yl)pyrazolo[1,5-α]pyrimidin-3-yl]-[1,3,4]oxathiazol-2-one]
37 | 4.3 | Cc1ccsc1-c1c(Cl)nc2c(-c3ncco3)cnn2c1NC(C)C(C)C (stereo not drawn) [Example XXVII, [5-Chloro-6-(3-methylthiophen-2-yl)-3-oxazol-2-ylpyrazolo[1,5-α]pyrimidin-7-yl](1,2-dimethyl-propyl)amine]
38 | 0.67 | Cc1nnc(-c2cnn3c(O)c(-c4ccc(F)cc4Cl)c(O)nc23)o1 [Example XXX, 6-(2-Chloro-4-fluorophenyl)-3-(5-methyl-[1,3,4]oxadiazol-2-yl)pyrazolo[1,5-a]pyrimidine-5,7-diol]
39 | 0.51 | Cc1nnc(-c2cnn3c(O)c(-c4ccc(F)cc4Cl)c(O)nc23)[nH]1 [Example XXXI, 6-(2-chloro-4-fluorophenyl)-3-(5-methyl-[1,3,4]triazol-2-yl)pyrazolo[1,5-a]pyrimidine-5,7-diol]
40 | 0.91 | Oc1nc2c(-c3ccccn3)cnn2c(O)c1-c1ccc(F)cc1Cl [Example XXXII, 6-(2-chloro-4-fluorophenyl)-3-pyridin-2-ylpyrazolo[1,5-a]pyrimidine-5,7-diol]
41 | 3.94 | Cc1nnc(-c2cnn3c(NC(C)C(C)C)c(-c4ccc(F)cc4Cl)c(Cl)nc23)o1 (stereo not shown) [Example XXXVI]
42 | 4.09 | CNS(=O)(=O)c1cnn2c(NC(C)C(C)(C)C)c(-c3ccc(F)cc3Cl)c(Cl)nc12 (stereo not shown) [N-methyl-5-chloro-6-(2-chloro-4-fluorophenyl)-7-(1,2,2-trimethylpropylamino)pyrazolo[1,5-a]pyrimidine-3-sulphonamide]
43 | 3.75 | CC(C)C(C)Nc1c(-c2ccc(F)cc2Cl)c(Cl)nc2c(/C=N/NC(N)=S)cnn12 (stereo not shown) [Thiosemicarbazone of 5-chloro-6-(2-chloro-4-fluorophenyl)-7-(1,2-dimethyl-propylamino)pyrazolo[1,5-a]pyrimidine-3-carbaldehyde]
44 | 2.91 | Cc1nnc(-c2cnn3c(NC(C)C(C)C)c(-c4ccc(F)cc4Cl)c(Cl)nc23)[nH]1 (stereo not shown) [XXXVII, [5-chloro-6-(2-chloro-4-fluorophenyl)-3-(5-methyl-[1,3,4]triazol-2-yl)pyrazolo[1,5-a]pyrimidin-7-yl](1,2-dimethylpropyl)-amine]
45 | 3.54 | CC(C)C(C)Nc1c(-c2ccc(F)cc2Cl)c(Cl)nc2c(-c3ccccn3)cnn12 (stereo not shown) [XXXVIII, [5-chloro-6-(2-chloro-4-fluorophenyl)-3-pyridin-2-ylpyrazolo[1,5-a]pyrimidin-7-yl](1,2-dimethylpropyl)amine]
46 | 4.12 | COC(=O)c1cnn2c(N[C@H](C)C(C)C)c(-c3c(F)cccc3Cl)c(Cl)nc12 [methyl 5-chloro-6-(2-chloro-6-fluorophenyl)-7-{[(1R)-1,2-dimethylpropyl]amino}pyrazolo[1,5-a]pyrimidine-3-carboxylate]

From patent publication US7629294B2, “Pyrazolopyrimidines” (Bayer CropScience LP, priority 2004, dated 2009)
